Source: patent US20240368173A1, “TRICYCLIC GPR65 MODULATORS” (PATHIOS THERAPEUTICS LIMITED, priority 2021, published 2024)
Where two headings read alike, the source gives them in different places.

Target: human recombinant GPR65 (Homo sapiens, UniProt Q8IYL9)
Assay: Human GPR65 cAMP HTRF antagonist assay
Type: cell-based
In short: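 Antagonism measured as suppression of the cAMP rise when pH is dropped to 7.2 (control wells pH 7.9) in 1321N1 cells stably carrying human GPR65. Cells in KRH with 1 mM IBMX and 200 μM EDTA saw compound 30 min, then acid stimulation 30 min; HTRF cAMP detection, normalised, 4-parameter logistic IC50.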

[1] = 1321N1-hrGPR65 cells, cAMP HTRF, assay pH 7.2, read-out: hGPR65 IC50 (Activity of selected compounds according to the invention)

Sequence of human recombinant GPR65 (Q8IYL9 whole entry): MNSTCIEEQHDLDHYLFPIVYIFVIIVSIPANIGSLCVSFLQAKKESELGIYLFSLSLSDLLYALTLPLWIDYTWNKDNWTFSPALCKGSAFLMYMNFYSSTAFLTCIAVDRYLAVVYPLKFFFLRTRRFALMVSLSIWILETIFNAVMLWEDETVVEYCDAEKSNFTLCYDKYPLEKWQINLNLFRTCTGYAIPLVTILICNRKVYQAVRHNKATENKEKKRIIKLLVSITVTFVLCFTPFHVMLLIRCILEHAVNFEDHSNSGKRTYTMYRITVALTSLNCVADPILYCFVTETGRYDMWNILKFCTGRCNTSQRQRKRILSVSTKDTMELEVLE

COc1cnccc1-c1cc(F)c(NC(=O)N2[C@H]3CC[C@@H]2c2ccnc(F)c2C3)cc1Cl [Compound 297, (5R,8S)-N-(5-Chloro-2-fluoro-4-(3-methoxypyridin-4-yl)phenyl)-1-fluoro-6,7,8,9-tetrahydro-5H-5,8-epiminocyclohepta[c]pyridine-10-carboxamide]
IC50: < 500 nM

O=C(Nc1cc(Br)c(C(F)(F)F)cc1F)N1[C@@H]2CC[C@H]1c1c[nH]c(=O)nc1C2 [Compound 29, (5S,8R)-N-(5-Bromo-2-fluoro-4-(trifluoromethyl)phenyl)-2-oxo-3,5,6,7,8,9-hexahydro-2H-5,8-epiminocyclohepta[d]pyrimidine-10-carboxamide]
IC50 [1]: > 5000 nM

Cc1ccc(-c2cc(F)c(NC(=O)N3[C@H]4CC[C@@H]3c3n[nH]c(=O)cc3C4)cc2Cl)cn1 [Compound 123, (6S,9R)-N-(5-Chloro-2-fluoro-4-(6-methylpyridin-3-yl)phenyl)-3-oxo-3,5,6,7,8,9-hexahydro-2H-6,9-epiminocyclohepta[c]pyridazine-10-carboxamide]
IC50: < 500 nM

O=C(Nc1cc(Cl)c(-c2ccc3nsnc3c2)cc1F)N1[C@H]2CC[C@@H]1c1ccnc(F)c1C2 [Compound 177, (5R,8S)-N-(4-(benzo[c][1,2,5]thiadiazol-5-yl)-5-chloro-2-fluorophenyl)-1-fluoro-6,7,8,9-tetrahydro-5H-5,8-epiminocyclohepta[c]pyridine-10-carboxamide]
IC50: < 500 nM

O=C(Nc1cc(-c2cccnc2F)c(-c2cccnc2F)cc1F)N1[C@H]2CC[C@@H]1c1n[nH]c(=O)cc1C2 [Compound 116, (6S,9R)-N-(2-Fluoro-4,5-bis(2-fluoropyridin-3-yl)phenyl)-3-oxo-3,5,6,7,8,9-hexahydro-2H-6,9-epiminocyclohepta[c]pyridazine-10-carboxamide]
IC50 [1]: 500 to 5000 nM

O=C(Nc1cc(Cl)c(-c2ccc(F)nc2)cn1)N1[C@H]2CC[C@@H]1c1n[nH]c(=O)cc1C2 [Compound 230, (6S,9R)-N-(4-Chloro-6′-fluoro-[3,3′-bipyridin]-6-yl)-3-oxo-3,5,6,7,8,9-hexahydro-2H-6,9-epiminocyclohepta[c]pyridazine-10-carboxamide]
IC50: < 500 nM

O=C(Nc1cc(Cl)c(Cl)cc1F)N1[C@H]2CC[C@@H]1c1c(OCc3ccccc3)cnc(F)c1C2 [Compound 102, (5R,8S)-4-(benzyloxy)-N-(4,5-dichloro-2-fluorophenyl)-1-fluoro-6,7,8,9-tetrahydro-5H-5,8-epiminocyclohepta[c]pyridine-10-carboxamide]
IC50: < 500 nM

O=C(Nc1cc(Cl)c(I)cc1F)N1C2CCC1c1n[nH]c(=O)cc1C2 (racemic) [Compound 74, (±)-N-(5-Chloro-2-fluoro-4-iodophenyl)-3-oxo-3,5,6,7,8,9-hexahydro-2H-6,9-epiminocyclohepta[c]pyridazine-10-carboxamide]
IC50: < 500 nM

O=C(Nc1cc(Cl)c(-c2cncc(C(F)F)c2)cc1F)N1[C@H]2CC[C@@H]1c1n[nH]c(=O)cc1C2 [Compound 333, (6S,9R)-N-(5-Chloro-4-(5-(difluoromethyl)pyridin-3-yl)-2-fluorophenyl)-3-oxo-3,5,6,7,8,9-hexahydro-2H-6,9-epiminocyclohepta[c]pyridazine-10-carboxamide]
IC50: < 500 nM

O=C(Nc1cc(Cl)c(-c2ccc(OC3CCCC3)nc2)cc1F)N1[C@H]2CC[C@@H]1c1n[nH]c(=O)cc1C2 [Compound 336, (6S,9R)-N-(5-Chloro-4-(6-(cyclopentyloxy)pyridin-3-yl)-2-fluorophenyl)-3-oxo-3,5,6,7,8,9-hexahydro-2H-6,9-epiminocyclohepta[c]pyridazine-10-carboxamide]
IC50: < 500 nM

O=C(Nc1cc(Cl)c(Oc2ccc(F)nc2)cc1F)N1[C@H]2CC[C@@H]1c1n[nH]c(=O)cc1C2 [Compound 225, (6S,9R)—N-(5-Chloro-2-fluoro-4-((6-fluoropyridin-3-yl)oxy)phenyl)-3-oxo-3,5,6,7,8,9-hexahydro-2H-6,9-epiminocyclohepta[c]pyridazine-10-carboxamide]
IC50: < 500 nM

O=C(Nc1cc(Cl)c(-c2cnc3nonc3c2)cc1F)N1[C@H]2CC[C@@H]1c1ccnc(F)c1C2 [Compound 190, (5R,8S)-N-(4-([1,2,5]Oxadiazolo[3,4-b]pyridin-6-yl)-5-chloro-2-fluorophenyl)-1-fluoro-6,7,8,9-tetrahydro-5H-5,8-epiminocyclohepta[c]pyridine-10-carboxamide]
IC50: < 500 nM

O=C(Nc1ccc(OC(F)(F)F)c(Cl)c1)N1[C@H]2CC[C@@H]1c1n[nH]c(=O)cc1C2 [Compound 46, (6S,9R)-N-(3-Chloro-4-(trifluoromethoxy)phenyl)-3-oxo-3,5,6,7,8,9-hexahydro-2H-6,9-epiminocyclohepta[c]pyridazine-10-carboxamide]
IC50: < 500 nM

CS(=O)(=O)c1ccc(-c2cc(F)c(NC(=O)N3[C@H]4CC[C@@H]3c3n[nH]c(=O)cc3C4)cc2Cl)cn1 [Compound 180, (6S,9R)-N-(5-Chloro-2-fluoro-4-(6-(methylsulfonyl)pyridin-3-yl)phenyl)-3-oxo-3,5,6,7,8,9-hexahydro-2H-6,9-epiminocyclohepta[c]pyridazine-10-carboxamide]
IC50 [1]: 500 to 5000 nM

COCCNc1ncc(-c2cc(F)c(NC(=O)N3[C@H]4CC[C@@H]3c3n[nH]c(=O)cc3C4)cc2Cl)cn1 [Compound 121, (6S,9R)-N-(5-Chloro-2-fluoro-4-(2-((2-methoxyethyl)amino)pyrimidin-5-yl)phenyl)-3-oxo-3,5,6,7,8,9-hexahydro-2H-6,9-epiminocyclohepta[c]pyridazine-10-carboxamide]
IC50: < 500 nM

COc1cnc(F)c2c1[C@H]1CC[C@@H](C2)N1C(=O)Nc1cc(Cl)c(Cl)cc1F [Compound 96, (5R,8S)-N-(4,5-Dichloro-2-fluorophenyl)-1-fluoro-4-methoxy-6,7,8,9-tetrahydro-5H-5,8-epiminocyclohepta[c]pyridine-10-carboxamide]
IC50: < 500 nM

CO[C@H]1C[C@@H](Oc2ccc(-c3cc(F)c(NC(=O)N4[C@H]5CC[C@@H]4c4c[nH]c(=O)cc4C5)cc3Cl)cn2)C1 [Compound 321, (6S,9R)-N-(5-Chloro-2-fluoro-4-(6-((1s,3S)-3-methoxycyclobutoxy)pyridin-3-yl)phenyl)-3-oxo-3,5,6,7,8,9-hexahydro-2H-6,9-epiminocyclohepta[c]pyridine-10-carboxamide]
IC50: < 500 nM

O=C(Nc1cc(F)c(NC(=O)N2[C@H]3CC[C@@H]2c2n[nH]c(=O)cc2C3)cc1Cl)c1ccccc1 [Compound 236, (6S,9R)—N-(4-benzamido-5-chloro-2-fluorophenyl)-3-oxo-3,5,6,7,8,9-hexahydro-2H-6,9-epiminocyclohepta[c]pyridazine-10-carboxamide]
IC50: 500 to 5000 nM

O=C(Nc1cc(Cl)c(-c2ccnc(F)c2)cc1F)N1[C@H]2CC[C@@H]1c1c[nH]c(=O)cc1C2 [Compound 267, (6S,9R)-N-(5-Chloro-2-fluoro-4-(2-fluoropyridin-4-yl)phenyl)-3-oxo-3,5,6,7,8,9-hexahydro-2H-6,9-epiminocyclohepta[c]pyridine-10-carboxamide]
IC50: < 500 nM

O=C(Nc1cc(Cl)c(-c2ccc(C(F)(F)F)nc2)cc1F)N1[C@H]2CC[C@@H]1c1n[nH]c(=O)cc1C2 [Compound 313, (6S,9R)-N-(5-Chloro-2-fluoro-4-(6-(trifluoromethyl)pyridin-3-yl)phenyl)-3-oxo-3,5,6,7,8,9-hexahydro-2H-6,9-epiminocyclohepta[c]pyridazine-10-carboxamide]
IC50: < 500 nM

O=C(Nc1cc(Cl)c(-c2ccnnc2)cc1F)N1[C@H]2CC[C@@H]1c1n[nH]c(=O)cc1C2 [Compound 174, (6S,9R)-N-(5-Chloro-2-fluoro-4-(pyridazin-4-yl)phenyl)-3-oxo-3,5,6,7,8,9-hexahydro-2H-6,9-epiminocyclohepta[c]pyridazine-10-carboxamide]
IC50 [1]: > 5000 nM

O=C(Nc1cc(Cl)c(-c2ccc(OCC(F)(F)F)nc2)cc1F)N1[C@H]2CC[C@@H]1c1n[nH]c(=O)cc1C2 [Compound 215, (6S,9R)-N-(5-Chloro-2-fluoro-4-(6-(2,2,2-trifluoroethoxy)pyridin-3-yl)phenyl)-3-oxo-3,5,6,7,8,9-hexahydro-2H-6,9-epiminocyclohepta[c]pyridazine-10-carboxamide]
IC50: < 500 nM

O=C(Nc1cc(Cl)c(-c2ccc(OCC3CC3(F)F)nc2)cc1F)N1[C@H]2CC[C@@H]1c1n[nH]c(=O)cc1C2 (stereo partly drawn) [Compound 338, (6S,9R)-N-(5-Chloro-4-(6-((2,2-difluorocyclopropyl)methoxy)pyridin-3-yl)-2-fluorophenyl)-3-oxo-3,5,6,7,8,9-hexahydro-2H-6,9-epiminocyclohepta[c]pyridazine-10-carboxamide]
IC50: < 500 nM

O=C(Nc1cc(Cl)c(-c2ccc3nonc3c2)cn1)N1[C@H]2CC[C@@H]1c1ccnc(F)c1C2 [Compound 339, (5R,8S)-N-(5-(Benzo[c][1,2,5]oxadiazol-5-yl)-4-chloropyridin-2-yl)-1-fluoro-6,7,8,9-tetrahydro-5H-5,8-epiminocyclohepta[c]pyridine-10-carboxamide]
IC50: < 500 nM

O=C(Nc1cc(Cl)c(-c2ccc3nonc3c2)cc1F)N1[C@H]2CC[C@@H]1c1n[nH]c(=O)cc1C2 [Compound 108, (6S,9R)-N-(4-(Benzo[c][1,2,5]oxadiazol-5-yl)-5-chloro-2-fluorophenyl)-3-oxo-3,5,6,7,8,9-hexahydro-2H-6,9-epiminocyclohepta[c]pyridazine-10-carboxamide]
IC50: < 500 nM

O=C(Nc1cc(Cl)c(C(F)(F)F)cn1)N1C2CCC1c1n[nH]c(=O)cc1C2 (racemic) [Compound 12, (±)-N-(4-Chloro-5-(trifluoromethyl)pyridin-2-yl)-3-oxo-3,5,6,7,8,9-hexahydro-2H-6,9-epiminocyclohepta[c]pyridazine-10-carboxamide]
IC50 [1]: 500 to 5000 nM
